Experimental data as given in publication PMC4774911, “Biochemical Screening of Five Protein Kinases from Plasmodium falciparum against 14,000 Cell-Active Compounds” (PLoS ONE, 2016).
Several values for one entry are separate records, joined by “and”; a condition that tells them apart may be missing. Equal values may be shown once.

Legend:
Experiment in all cases: biochemical
MAP3K1 = MAP3K1 (Homo sapiens, UniProt Q13233)
CSNK1D = CSNK1D (Homo sapiens, UniProt P48730)
CAMK2D = CAMK2D (Homo sapiens, UniProt Q13557)
Sequence of CAMK2D (Q13557 whole entry): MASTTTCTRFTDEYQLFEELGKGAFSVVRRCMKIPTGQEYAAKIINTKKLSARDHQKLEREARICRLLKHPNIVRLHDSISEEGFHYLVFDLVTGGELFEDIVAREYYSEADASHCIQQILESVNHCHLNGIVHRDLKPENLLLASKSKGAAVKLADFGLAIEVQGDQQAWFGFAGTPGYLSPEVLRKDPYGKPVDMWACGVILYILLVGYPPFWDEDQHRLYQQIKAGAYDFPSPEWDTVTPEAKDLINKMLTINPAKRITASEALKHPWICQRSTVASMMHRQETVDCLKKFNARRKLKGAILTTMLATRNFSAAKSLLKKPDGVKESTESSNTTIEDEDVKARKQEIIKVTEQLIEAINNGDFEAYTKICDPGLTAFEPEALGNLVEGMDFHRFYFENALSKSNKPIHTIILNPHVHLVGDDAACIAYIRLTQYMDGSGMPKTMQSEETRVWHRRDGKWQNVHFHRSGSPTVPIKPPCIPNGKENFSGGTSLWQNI

IKBKB = biological target: T1, IKBKB (Homo sapiens, UniProt O14920)
T1 sequence (O14920 1-756): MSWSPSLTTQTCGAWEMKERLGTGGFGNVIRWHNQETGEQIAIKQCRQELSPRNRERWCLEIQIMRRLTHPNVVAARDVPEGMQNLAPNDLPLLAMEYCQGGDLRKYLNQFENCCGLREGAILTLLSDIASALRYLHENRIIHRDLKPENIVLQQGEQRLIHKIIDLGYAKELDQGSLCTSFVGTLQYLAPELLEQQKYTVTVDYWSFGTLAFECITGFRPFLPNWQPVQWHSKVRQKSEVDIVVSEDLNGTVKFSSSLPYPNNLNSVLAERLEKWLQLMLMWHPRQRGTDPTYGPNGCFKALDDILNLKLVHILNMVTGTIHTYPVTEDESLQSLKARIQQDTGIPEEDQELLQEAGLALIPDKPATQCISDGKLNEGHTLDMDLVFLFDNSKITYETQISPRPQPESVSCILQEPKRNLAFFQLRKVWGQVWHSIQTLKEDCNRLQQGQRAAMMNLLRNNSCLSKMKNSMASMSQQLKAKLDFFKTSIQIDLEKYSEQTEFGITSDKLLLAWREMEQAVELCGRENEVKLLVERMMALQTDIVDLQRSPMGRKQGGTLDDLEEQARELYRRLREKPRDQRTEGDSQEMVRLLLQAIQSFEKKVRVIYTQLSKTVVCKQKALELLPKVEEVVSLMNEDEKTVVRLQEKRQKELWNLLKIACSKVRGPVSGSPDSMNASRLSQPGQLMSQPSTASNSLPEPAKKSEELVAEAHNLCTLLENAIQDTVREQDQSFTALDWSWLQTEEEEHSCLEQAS

PRKCQ = PRKCQ (Homo sapiens, UniProt Q04759)
Sequence of PRKCQ (Q04759 whole entry): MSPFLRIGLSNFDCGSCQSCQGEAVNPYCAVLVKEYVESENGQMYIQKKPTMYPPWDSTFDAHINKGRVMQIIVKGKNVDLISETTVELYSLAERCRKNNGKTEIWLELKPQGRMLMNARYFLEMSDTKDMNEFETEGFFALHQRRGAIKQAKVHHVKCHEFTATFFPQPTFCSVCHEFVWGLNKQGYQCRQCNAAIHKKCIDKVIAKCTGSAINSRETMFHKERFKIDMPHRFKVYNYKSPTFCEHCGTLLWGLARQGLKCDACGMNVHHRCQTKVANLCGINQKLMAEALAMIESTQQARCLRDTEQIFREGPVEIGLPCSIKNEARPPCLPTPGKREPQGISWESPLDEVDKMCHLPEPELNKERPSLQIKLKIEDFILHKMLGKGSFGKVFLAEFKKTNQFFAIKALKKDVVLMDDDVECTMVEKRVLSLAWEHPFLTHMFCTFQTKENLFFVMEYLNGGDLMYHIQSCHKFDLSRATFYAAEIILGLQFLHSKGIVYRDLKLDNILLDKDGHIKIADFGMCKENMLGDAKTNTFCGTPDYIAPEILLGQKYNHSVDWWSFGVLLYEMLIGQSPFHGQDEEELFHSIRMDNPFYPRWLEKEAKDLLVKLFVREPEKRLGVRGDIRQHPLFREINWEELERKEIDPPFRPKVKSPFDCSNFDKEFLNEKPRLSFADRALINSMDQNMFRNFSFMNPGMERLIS

CDK9 = CDK9 (Homo sapiens, UniProt P50750)
Sequence of CDK9 (P50750 whole entry): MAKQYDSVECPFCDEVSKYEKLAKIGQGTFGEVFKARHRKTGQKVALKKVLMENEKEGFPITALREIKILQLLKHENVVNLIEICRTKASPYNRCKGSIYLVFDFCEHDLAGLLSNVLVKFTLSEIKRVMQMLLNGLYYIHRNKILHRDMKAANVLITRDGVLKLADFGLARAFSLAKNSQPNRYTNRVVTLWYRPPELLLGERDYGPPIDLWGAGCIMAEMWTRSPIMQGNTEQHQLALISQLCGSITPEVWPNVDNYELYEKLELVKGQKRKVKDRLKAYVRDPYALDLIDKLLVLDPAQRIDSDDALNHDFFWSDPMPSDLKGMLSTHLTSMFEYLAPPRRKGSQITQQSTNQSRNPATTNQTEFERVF

LATS1 = biological target: T2, LATS1 (Homo sapiens, UniProt O95835)
T2 sequence (O95835 1-1130): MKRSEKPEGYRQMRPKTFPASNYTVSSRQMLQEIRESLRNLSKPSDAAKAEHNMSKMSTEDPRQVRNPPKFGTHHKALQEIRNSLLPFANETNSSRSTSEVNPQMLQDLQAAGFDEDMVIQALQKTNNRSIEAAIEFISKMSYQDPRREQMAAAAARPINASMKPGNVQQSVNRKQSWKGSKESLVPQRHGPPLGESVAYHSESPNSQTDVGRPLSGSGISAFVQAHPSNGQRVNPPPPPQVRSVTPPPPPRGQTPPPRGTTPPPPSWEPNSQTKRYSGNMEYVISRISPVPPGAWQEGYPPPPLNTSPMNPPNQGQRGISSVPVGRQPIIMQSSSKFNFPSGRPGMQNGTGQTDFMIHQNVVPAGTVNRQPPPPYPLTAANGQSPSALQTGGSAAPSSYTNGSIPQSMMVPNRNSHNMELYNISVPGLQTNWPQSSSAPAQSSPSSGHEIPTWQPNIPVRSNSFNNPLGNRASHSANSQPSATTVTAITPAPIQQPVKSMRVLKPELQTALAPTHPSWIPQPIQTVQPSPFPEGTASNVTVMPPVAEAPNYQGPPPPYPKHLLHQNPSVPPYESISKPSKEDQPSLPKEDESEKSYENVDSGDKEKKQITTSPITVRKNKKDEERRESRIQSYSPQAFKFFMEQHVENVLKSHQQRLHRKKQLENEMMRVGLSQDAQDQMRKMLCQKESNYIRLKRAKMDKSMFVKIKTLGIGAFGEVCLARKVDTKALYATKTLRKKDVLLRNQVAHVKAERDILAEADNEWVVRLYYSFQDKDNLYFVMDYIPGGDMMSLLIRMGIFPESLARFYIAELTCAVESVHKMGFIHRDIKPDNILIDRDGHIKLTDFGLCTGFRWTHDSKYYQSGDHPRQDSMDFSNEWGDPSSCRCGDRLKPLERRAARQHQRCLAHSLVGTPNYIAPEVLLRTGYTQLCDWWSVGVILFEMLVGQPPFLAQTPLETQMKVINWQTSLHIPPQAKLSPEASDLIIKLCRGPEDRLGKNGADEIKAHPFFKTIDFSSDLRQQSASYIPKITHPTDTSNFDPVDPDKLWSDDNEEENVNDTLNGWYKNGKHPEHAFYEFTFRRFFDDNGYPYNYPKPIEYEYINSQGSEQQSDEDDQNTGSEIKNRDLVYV

MAPK1 = MAPK1 (Homo sapiens, UniProt P28482)
Sequence of MAPK1 (P28482 whole entry): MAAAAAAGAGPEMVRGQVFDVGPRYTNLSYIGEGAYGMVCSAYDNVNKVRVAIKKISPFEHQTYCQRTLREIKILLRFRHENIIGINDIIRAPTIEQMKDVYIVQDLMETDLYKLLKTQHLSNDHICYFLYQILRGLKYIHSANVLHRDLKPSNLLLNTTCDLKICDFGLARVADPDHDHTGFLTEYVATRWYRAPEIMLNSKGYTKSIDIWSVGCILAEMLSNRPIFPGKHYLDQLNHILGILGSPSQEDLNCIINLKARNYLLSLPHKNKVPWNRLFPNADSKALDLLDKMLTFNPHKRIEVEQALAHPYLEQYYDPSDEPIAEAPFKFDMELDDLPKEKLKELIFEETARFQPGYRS

STK17A = biological target: T3, STK17A (Homo sapiens, UniProt Q9UEE5)
T3 sequence (Q9UEE5 1-414): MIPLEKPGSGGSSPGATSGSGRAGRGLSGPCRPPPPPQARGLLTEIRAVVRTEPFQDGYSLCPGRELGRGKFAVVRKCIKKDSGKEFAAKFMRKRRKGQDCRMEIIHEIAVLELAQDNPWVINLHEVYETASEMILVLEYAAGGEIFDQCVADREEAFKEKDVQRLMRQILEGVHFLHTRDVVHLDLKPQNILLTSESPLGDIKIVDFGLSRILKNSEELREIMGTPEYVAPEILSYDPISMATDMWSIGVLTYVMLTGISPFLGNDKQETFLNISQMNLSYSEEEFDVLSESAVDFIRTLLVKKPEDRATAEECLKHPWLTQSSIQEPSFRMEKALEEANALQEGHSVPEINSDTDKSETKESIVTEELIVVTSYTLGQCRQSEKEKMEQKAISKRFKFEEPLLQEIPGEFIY

MAP2K2 = MAP2K2 (Homo sapiens, UniProt P36507)
Sequence of MAP2K2 (P36507 whole entry): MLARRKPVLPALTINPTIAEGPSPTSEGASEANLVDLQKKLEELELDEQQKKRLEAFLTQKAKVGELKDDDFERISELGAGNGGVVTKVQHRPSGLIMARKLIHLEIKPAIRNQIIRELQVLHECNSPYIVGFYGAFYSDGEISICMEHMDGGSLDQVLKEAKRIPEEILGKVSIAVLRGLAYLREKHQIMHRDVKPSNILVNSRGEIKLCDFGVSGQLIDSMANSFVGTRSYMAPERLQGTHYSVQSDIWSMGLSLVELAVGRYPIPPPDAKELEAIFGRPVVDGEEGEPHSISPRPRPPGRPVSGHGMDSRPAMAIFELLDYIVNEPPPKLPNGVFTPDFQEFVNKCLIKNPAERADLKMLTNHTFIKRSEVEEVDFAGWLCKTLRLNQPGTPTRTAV

CAMK2G = CAMK2G (Homo sapiens, UniProt Q13555)
Sequence of CAMK2G (Q13555 whole entry): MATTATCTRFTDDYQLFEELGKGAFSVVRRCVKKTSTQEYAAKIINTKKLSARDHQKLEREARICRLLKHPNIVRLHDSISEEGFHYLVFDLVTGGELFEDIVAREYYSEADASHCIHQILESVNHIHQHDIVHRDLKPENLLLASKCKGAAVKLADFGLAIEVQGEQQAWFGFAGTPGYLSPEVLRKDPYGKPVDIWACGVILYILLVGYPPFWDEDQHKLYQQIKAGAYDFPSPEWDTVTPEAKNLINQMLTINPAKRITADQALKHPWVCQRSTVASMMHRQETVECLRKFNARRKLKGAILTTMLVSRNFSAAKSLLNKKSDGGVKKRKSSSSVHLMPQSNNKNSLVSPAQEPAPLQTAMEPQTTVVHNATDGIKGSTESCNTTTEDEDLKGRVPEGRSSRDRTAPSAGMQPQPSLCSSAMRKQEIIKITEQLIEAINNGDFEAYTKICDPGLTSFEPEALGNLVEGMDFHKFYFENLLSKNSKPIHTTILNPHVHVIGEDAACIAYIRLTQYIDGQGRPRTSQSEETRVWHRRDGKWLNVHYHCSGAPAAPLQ

Sequence of CSNK1D (P48730 whole entry): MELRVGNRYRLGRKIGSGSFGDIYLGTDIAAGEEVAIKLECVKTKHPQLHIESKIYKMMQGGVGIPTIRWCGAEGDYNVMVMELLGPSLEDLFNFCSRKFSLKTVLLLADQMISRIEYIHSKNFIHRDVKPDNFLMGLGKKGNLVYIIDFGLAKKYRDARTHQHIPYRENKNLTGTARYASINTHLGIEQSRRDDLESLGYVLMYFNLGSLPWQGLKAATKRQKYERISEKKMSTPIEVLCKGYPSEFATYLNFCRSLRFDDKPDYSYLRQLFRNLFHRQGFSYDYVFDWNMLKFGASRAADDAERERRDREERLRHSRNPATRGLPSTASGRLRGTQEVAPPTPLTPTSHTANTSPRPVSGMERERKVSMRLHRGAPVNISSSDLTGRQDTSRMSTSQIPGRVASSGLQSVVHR
Sequence of MAP3K1 (Q13233 whole entry): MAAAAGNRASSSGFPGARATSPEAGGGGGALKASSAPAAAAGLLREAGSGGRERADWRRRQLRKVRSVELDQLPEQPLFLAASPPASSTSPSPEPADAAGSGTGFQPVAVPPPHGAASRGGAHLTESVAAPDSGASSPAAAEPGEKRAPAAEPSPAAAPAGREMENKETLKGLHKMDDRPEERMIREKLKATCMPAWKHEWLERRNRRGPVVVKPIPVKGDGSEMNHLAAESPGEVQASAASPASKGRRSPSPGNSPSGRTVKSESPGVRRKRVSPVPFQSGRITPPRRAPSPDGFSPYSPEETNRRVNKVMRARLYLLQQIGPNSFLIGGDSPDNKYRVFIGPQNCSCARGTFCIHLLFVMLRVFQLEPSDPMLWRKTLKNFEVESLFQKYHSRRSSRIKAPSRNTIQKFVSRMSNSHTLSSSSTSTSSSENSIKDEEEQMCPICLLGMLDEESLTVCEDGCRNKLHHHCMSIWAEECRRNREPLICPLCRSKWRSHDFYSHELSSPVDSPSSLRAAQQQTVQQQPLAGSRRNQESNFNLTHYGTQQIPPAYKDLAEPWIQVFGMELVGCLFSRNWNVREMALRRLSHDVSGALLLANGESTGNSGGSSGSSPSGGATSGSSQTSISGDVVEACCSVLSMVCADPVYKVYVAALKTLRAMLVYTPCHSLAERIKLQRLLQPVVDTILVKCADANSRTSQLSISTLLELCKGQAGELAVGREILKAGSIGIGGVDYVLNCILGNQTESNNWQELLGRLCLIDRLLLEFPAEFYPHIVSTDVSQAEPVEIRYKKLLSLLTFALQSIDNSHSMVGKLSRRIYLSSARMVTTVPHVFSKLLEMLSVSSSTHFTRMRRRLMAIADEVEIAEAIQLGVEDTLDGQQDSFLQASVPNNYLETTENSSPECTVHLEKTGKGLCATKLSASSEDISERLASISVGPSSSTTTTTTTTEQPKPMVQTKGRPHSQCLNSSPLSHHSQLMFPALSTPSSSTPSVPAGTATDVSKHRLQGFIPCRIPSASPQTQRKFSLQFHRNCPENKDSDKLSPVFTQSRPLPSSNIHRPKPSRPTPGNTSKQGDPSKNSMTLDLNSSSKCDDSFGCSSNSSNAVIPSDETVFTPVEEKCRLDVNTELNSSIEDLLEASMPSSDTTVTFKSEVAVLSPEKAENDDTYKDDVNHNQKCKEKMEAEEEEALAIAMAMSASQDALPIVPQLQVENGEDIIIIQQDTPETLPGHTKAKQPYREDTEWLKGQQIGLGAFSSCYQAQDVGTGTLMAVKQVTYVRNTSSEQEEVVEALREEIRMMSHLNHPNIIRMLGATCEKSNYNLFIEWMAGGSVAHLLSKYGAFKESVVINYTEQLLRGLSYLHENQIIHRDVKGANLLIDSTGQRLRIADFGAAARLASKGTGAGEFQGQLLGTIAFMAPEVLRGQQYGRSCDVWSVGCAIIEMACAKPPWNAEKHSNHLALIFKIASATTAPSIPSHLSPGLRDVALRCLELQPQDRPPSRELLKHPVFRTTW

| SMILES | IC50 (MAP3K1) | IC50 (CSNK1D) | IC50 (CAMK2D) | IC50 (IKBKB) | IC50 (PRKCQ) | IC50 (CDK9) | IC50 (LATS1) | IC50 (MAPK1) | IC50 (STK17A) | IC50 (MAP2K2) | IC50 (CAMK2G) |
| --- | --- | --- | --- | --- | --- | --- | --- | --- | --- | --- | --- |
| CN(C)CC(O)COc1ccc(Nc2ncc([N+](=O)[O-])c(Nc3ccccc3O)n2)cc1.O=C(O)C(F)(F)F (stereo not drawn) [TCMDC-141399] | > 20 µM | > 20 µM | > 20 µM | > 20 µM | > 20 µM | 5.3 µM and 7.3 µM | > 20 µM | > 20 µM | 4.2 µM | > 20 µM | > 20 µM |
| Cl.NCC1(c2nc(-c3ccc(Cl)c(O)c3)c(-c3ccncc3)[nH]2)CCCCC1 [TCMDC-141154] | > 20 µM | 0.069 µM and 0.079 µM | > 20 µM | > 20 µM | 1.1 µM and 1.4 µM | > 20 µM | 1.1 µM | > 20 µM | > 20 µM | 9 µM and > 20 µM | > 20 µM |
| CN1CCN(c2ccc(Nc3ncc(C#N)c(Nc4ccccc4C(N)=O)n3)cc2)CC1.Cl [TCMDC-134116] | 1.6 µM | 1.8 µM | 1.9 µM and 0.96 µM | > 20 µM | 1.2 µM and 0.91 µM | 1.1 µM and 0.75 µM | 0.21 µM | > 20 µM | 0.18 µM | 0.83 µM and 0.98 µM | 1.5 µM and 1.3 µM |
